Reference: patent US9511134B2, “Inducing immune responses to influenza virus using polypeptide and nucleic acid compositions” (priority 2006, dated 2016)
Like-named read-outs stand apart in the source and are kept apart here. Where no end group is shown, it is not given here.

Assays:
Test in all cases: biochemical
Type in all cases: binding
DRB1*0101 = biological target: T1, DRB1*0101 (Homo sapiens, UniProt P01903+P01911, A100R/D57E/F55L/F60I/F76Y/I96L/L162R/M171V/P40L/Q125E/R42F/V115G/Y59C)
T1 construct: made in house; host or cells: EBV-transformed homozygous human B cell lines, transfected fibroblasts or single-allele 721.221 transfectants

DRB1*1302 = DRB1*1302 (Homo sapiens, UniProt P01903+P01911, A100E/A169T/K41T/L162R/M171V/P40S/Q125H/Q178H/Q39Y/Q99D/R42S/S66N/T262R/V115G/W38E/Y61H); conditions: read-out: IC50 nM to purified HLA DRB1*1302
Sequence of DRB1*1302 (P01903 26-254 limits assumed, other chains not shown): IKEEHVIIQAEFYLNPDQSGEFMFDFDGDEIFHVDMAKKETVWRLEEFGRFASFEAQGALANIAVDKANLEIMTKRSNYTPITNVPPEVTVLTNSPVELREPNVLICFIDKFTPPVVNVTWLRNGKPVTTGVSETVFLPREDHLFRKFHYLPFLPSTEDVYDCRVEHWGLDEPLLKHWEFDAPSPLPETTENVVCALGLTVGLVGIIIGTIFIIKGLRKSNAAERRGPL

DRB1*1501 = biological target: T2, DRB1*1501 (Homo sapiens, UniProt P01903+P01911); conditions: read-out: IC50 nM to purified HLA DRB1*1501
T2 construct: made in house; host or cells: EBV-transformed homozygous human B cell lines, transfected fibroblasts or single-allele 721.221 transfectants

DRB4*0101 = biological target: T3, DRB4*0101 (Homo sapiens, UniProt P01903+P13762, G164S)
T3 construct: made in house; host or cells: EBV-transformed homozygous human B cell lines, transfected fibroblasts or single-allele 721.221 transfectants

DRB1*0401 = biological target: T4, DRB1*0401 (Homo sapiens, UniProt P01903+P01911, A100K/A169T/F76Y/I96L/K127E/L162R/M171V/N62H/P40V/Q125Y/R42H/S133A/S149N/S66Y/V115G/V209L/W38E); conditions: read-out: IC50 nM to purified HLA DRB1*0401
T4 construct: made in house; host or cells: EBV-transformed homozygous human B cell lines, transfected fibroblasts or single-allele 721.221 transfectants

DRB1*0301 = biological target: T5, DRB1*0301 (Homo sapiens, UniProt P01903+P01911, A100K/A102G/A103R/A169T/F55Y/I96L/K41T/L162R/M171V/P40S/Q125H/Q178H/Q39Y/R42S/S66N/T106N/T262R/W38E/Y61H)
T5 construct: made in house; host or cells: EBV-transformed homozygous human B cell lines, transfected fibroblasts or single-allele 721.221 transfectants
T5 sequence (P01903 26-254, other chains not shown): as the sequence (P01903 26-254 limits assumed, other chains not shown) above

DRB1*0404 = DRB1*0404 (Homo sapiens, UniProt P01903+P01911, A100R/A169T/F76Y/I96L/K127E/L162R/M171V/N62H/P40V/Q125Y/R42H/S133A/S149N/S66Y/V209L/W38E); conditions: IC50 nM to purified HLA DRB1*0404
[1] = IC50 nM to purified HLA DRB1*0101
[2] = IC50 nM to purified HLA DRB4*0101
[3] = IC50 nM to purified HLA DRB1*0101, Table 4
[4] = IC50 nM to purified HLA DRB4*0101, Table 4

| Compound | IC50 (DRB1*0101; [1]) [nM] | IC50 (DRB1*1302) [nM] | IC50 (DRB1*1501) [nM] | IC50 (DRB4*0101; [2]) [nM] | IC50 (DRB1*0101; [3]) [nM] | IC50 (DRB1*0401; Table 4) [nM] | IC50 (DRB1*0401) [nM] | IC50 (DRB1*1501; Table 4) [nM] | IC50 (DRB4*0101; [4]) [nM] | IC50 (DRB4*0101; read-out: IC50 nM to purified HLA DRB4*0101) [nM] | IC50 (DRB1*0301) [nM] | IC50 (DRB1*0404) [nM] |
| --- | --- | --- | --- | --- | --- | --- | --- | --- | --- | --- | --- | --- |
| CC[C@H](C)[C@H](NC(=O)[C@H](CC(C)C)NC(=O)[C@H](Cc1c[nH]c2ccccc12)NC(=O)[C@@H](NC(=O)[C@@H](N)C(C)C)C(C)C)C(=O)N[C@@H](CCCCN)C(=O)N[C@@H](CCCCN)C(=O)N[C@@H](CC(N)=O)C(=O)N[C@@H](CO)C(=O)N[C@H](C(=O)N[C@@H](Cc1ccc(O)cc1)C(=O)N1CCC[C@H]1C(=O)N[C@H](C(=O)N[C@H](C(=O)N[C@@H](CCCCN)C(=O)N[C@@H](CCCNC(=N)N)C(=O)O)[C@@H](C)CC)[C@@H](C)O)[C@@H](C)O [Flu.HA.163] | 464 | 14 | 99 | 1660 | – | – | – | – | – | – | – | – |
| CC[C@H](C)[C@H](N)C(=O)N[C@@H](Cc1ccc(O)cc1)C(=O)N[C@@H](CCC(N)=O)C(=O)N[C@H](C(=O)N[C@@H](CC(C)C)C(=O)N[C@@H](CO)C(=O)N[C@H](C(=O)N[C@@H](Cc1ccc(O)cc1)C(=O)N[C@@H](CO)C(=O)N[C@H](C(=O)N[C@H](C(=O)N[C@@H](C)C(=O)N[C@@H](CO)C(=O)N[C@@H](CO)C(=O)N[C@@H](CC(C)C)C(=O)N[C@@H](C)C(=O)O)C(C)C)[C@@H](C)O)[C@@H](C)CC)[C@@H](C)CC [Flu.HA.529] | 55 | 13 | 4.7 | 18 | 55 | 89 | 89 | 4.7 | 18 | – | – | – |
| CC[C@H](C)[C@H](N)C(=O)N[C@@H](CC(C)C)C(=O)N[C@@H](CO)C(=O)N[C@H](C(=O)N[C@@H](Cc1ccc(O)cc1)C(=O)N[C@@H](CO)C(=O)N[C@H](C(=O)N[C@H](C(=O)N[C@@H](C)C(=O)N[C@@H](CO)C(=O)N[C@@H](CO)C(=O)N[C@@H](CC(C)C)C(=O)N[C@@H](C)C(=O)N[C@@H](CC(C)C)C(=O)N[C@@H](C)C(=O)N[C@H](C(=O)O)[C@@H](C)CC)C(C)C)[C@@H](C)O)[C@@H](C)CC [Flu.HA.532] | 11 | 7.6 | 20 | 824 | 11 | 91 | 91 | 20 | 824 | – | – | – |
| CC[C@H](C)[C@H](NC(=O)[C@@H]1CCCN1C(=O)[C@H](CCCNC(=N)N)NC(=O)[C@@H](NC(=O)[C@H](CCCCN)NC(=O)[C@H](CC(C)C)NC(=O)[C@H](Cc1c[nH]c2ccccc12)NC(=O)[C@H](CCC(=O)O)NC(=O)[C@H](CCSC)NC(=O)[C@H](CC(C)C)NC(=O)[C@H](C)NC(=O)[C@@H](N)CCC(=O)O)[C@@H](C)O)C(=O)N[C@@H](CC(C)C)C(=O)N[C@@H](CO)C(=O)N1CCC[C@H]1C(=O)O [Flu.M1.43] | 9.5 | 380 | 18 | 5510 | – | – | – | – | – | – | – | – |
| CSCC[C@H](NC(=O)[C@H](CC(C)C)NC(=O)[C@@H](NC(=O)[C@H](CCCNC(=N)N)NC(=O)[C@H](Cc1c[nH]cn1)NC(=O)[C@@H]1CCCN1C(=O)[C@H](CO)NC(=O)[C@H](CCCNC(=N)N)NC(=O)[C@H](CC(=O)O)NC(=O)[C@H](CCCCN)NC(=O)[C@@H](NC(=O)[C@@H](NC(=O)CNC(=O)[C@@H](N)CC(N)=O)[C@@H](C)O)C(C)C)[C@@H](C)O)C(=O)N[C@@H](CO)C(=O)O [Flu.NA.126] | 581 | 7930 | – | 8880 | – | – | 17900 | – | – | – | – | – |
| CC[C@H](C)[C@H](NC(=O)[C@H](CC(C)C)NC(=O)[C@H](CCCNC(=N)N)NC(=O)CNC(=O)[C@@H](N)CCC(=O)O)C(=O)N[C@@H](CCC(N)=O)C(=O)N[C@@H](CC(N)=O)C(=O)N[C@@H](CO)C(=O)N[C@H](C(=O)N[C@H](C(=O)N[C@H](C(=O)N[C@@H](CCC(=O)O)C(=O)N[C@@H](CCCNC(=N)N)C(=O)N[C@@H](CCSC)C(=O)N[C@H](C(=O)O)C(C)C)[C@@H](C)CC)[C@@H](C)O)[C@@H](C)CC [Flu.NP.56] | – | 55 | – | 15 | – | – | – | – | – | – | – | – |
| CC[C@H](C)[C@H](NC(=O)[C@H](CO)NC(=O)[C@H](CC(N)=O)NC(=O)[C@@H](N)CCC(N)=O)C(=O)N[C@H](C(=O)N[C@H](C(=O)N[C@@H](CCC(=O)O)C(=O)N[C@@H](CCCNC(=N)N)C(=O)N[C@@H](CCSC)C(=O)N[C@H](C(=O)N[C@@H](CC(C)C)C(=O)N[C@@H](CO)C(=O)N[C@@H](C)C(=O)N[C@@H](Cc1ccccc1)C(=O)N[C@@H](CC(=O)O)C(=O)O)C(C)C)[C@@H](C)CC)[C@@H](C)O [Flu.NP.61] | – | – | 1200 | – | – | – | 430 | 1200 | – | 39 | – | – |
| CC(C)C[C@H](NC(=O)[C@H](CO)NC(=O)[C@H](CCCNC(=N)N)NC(=O)[C@H](CC(C)C)NC(=O)[C@H](CCC(=O)O)NC(=O)[C@@H]1CCCN1C(=O)[C@H](CCC(=O)O)NC(=O)[C@H](CC(=O)O)NC(=O)[C@H](CO)NC(=O)[C@H](CC(=O)O)NC(=O)[C@H](Cc1ccc(O)cc1)NC(=O)[C@H](CCC(N)=O)NC(=O)[C@H](CCCCN)NC(=O)[C@@H](N)CC(C)C)C(=O)N[C@@H](CO)C(=O)O [Flu.PA.393] | 17700 | – | – | – | – | – | 7260 | – | – | – | 88 | 5800 |
| CC[C@H](C)[C@H](NC(=O)[C@H](CCC(=O)O)NC(=O)[C@H](CC(=O)O)NC(=O)[C@H](CC(C)C)NC(=O)[C@H](CCC(=O)O)NC(=O)[C@@H](NC(=O)[C@H](Cc1c[nH]c2ccccc12)NC(=O)[C@@H](NC(=O)[C@@H](N)CO)[C@@H](C)CC)[C@@H](C)CC)C(=O)NCC(=O)N[C@@H](CCC(=O)O)C(=O)N[C@@H](CC(=O)O)C(=O)N[C@H](C(=O)N[C@@H](C)C(=O)N1CCC[C@H]1C(=O)O)C(C)C [Flu.PA.423] | 13400 | – | – | – | – | – | 5400 | – | – | – | 59 | 7610 |
| CC[C@H](C)[C@H](NC(=O)[C@H](CCSC)NC(=O)[C@H](CC(N)=O)NC(=O)[C@@H](N)CC(N)=O)C(=O)N[C@@H](CC(N)=O)C(=O)N[C@@H](CC(N)=O)C(=O)N[C@@H](CC(=O)O)C(=O)N[C@@H](CC(C)C)C(=O)NCC(=O)N1CCC[C@H]1C(=O)N[C@@H](C)C(=O)N[C@H](C(=O)N[C@@H](C)C(=O)N[C@@H](CCC(N)=O)C(=O)N[C@@H](CCSC)C(=O)O)[C@@H](C)O [Flu.PB1.535] | – | 477 | – | – | – | – | 798 | – | – | – | 527 | 1830 |
| CC[C@H](C)[C@H](NC(=O)[C@H](CC(N)=O)NC(=O)[C@H](Cc1ccc(O)cc1)NC(=O)[C@H](CC(C)C)NC(=O)[C@H](CC(N)=O)NC(=O)[C@@H]1CCCN1C(=O)CNC(=O)CNC(=O)[C@H](CC(=O)O)NC(=O)[C@H](CO)NC(=O)[C@@H](NC(=O)[C@H](CC(C)C)NC(=O)[C@H](CC(C)C)NC(=O)CNC(=O)[C@H](C)N)C(C)C)C(=O)O [Flu.PB1.590] | 8120 | 105 | – | – | – | – | 3000 | – | – | – | 107 | 3490 |
| CC[C@H](C)[C@H](NC(=O)[C@H](CCCNC(=N)N)NC(=O)[C@H](CCCCN)NC(=O)[C@H](CC(=O)O)NC(=O)[C@H](C)NC(=O)[C@@H](NC(=O)[C@@H](NC(=O)[C@@H]1CCCN1C(=O)[C@H](Cc1ccc(O)cc1)NC(=O)[C@@H](N)CCCCN)[C@@H](C)CC)[C@@H](C)O)C(=O)N[C@@H](CCSC)C(=O)N[C@@H](CCC(=O)O)C(=O)N[C@@H](CCSC)C(=O)N[C@H](C(=O)N1CCC[C@H]1C(=O)O)[C@@H](C)CC [Flu.PB2.57] | – | 68 | – | – | – | – | 9390 | – | – | – | 48 | 2290 |
| ISGVKLESIGIYQILSI [Flu.HA.519] | – | 408 | 9.2 | 16 | – | – | 3110 | – | – | – | – | – |
| PVHFRNQVKIRRRVD [Flu.PB2.135] | 2970 | 359 | – | – | – | – | 1300 | – | – | – | 458 | 5980 |
